PubChem BioAssay (NCI)
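Growth conditions: 96-well plates. Treatment: test compound, 48 hours, 5 concentrations. Analysis: linear interpolation between bracketing concentrations; unreached endpoints set to highest concentration. Abbreviation: GI50, concentration required for 50% inhibition of growth. TGI denotes the concentration required for complete inhibition of growth.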

How the values were obtained:
Experiment in all cases: NCI tumour cell line growth inhibition, 48 h; in the data active = GI50 below about 0.43 µM; inactive = the rest
CCRF-CEM leukemia = test system: CCRF-CEM leukemia
NCI-H522 lung = test system: NCI-H522 lung
NCI-H23 lung = test system: NCI-H23 lung
RXF 393 renal = test system: RXF 393 renal
786-0 renal = test system: 786-0 renal
SR leukemia = test system: SR leukemia
SNB-19 CNS = test system: SNB-19 CNS
MDA-MB-231 breast = test system: MDA-MB-231 breast
A498 renal = test system: A498 renal
NCI/ADR-RES ovarian = test system: NCI/ADR-RES ovarian
SK-MEL-5 melanoma = test system: SK-MEL-5 melanoma
OVCAR-3 ovarian = test system: OVCAR-3 ovarian
K-562 leukemia = test system: K-562 leukemia
CAKI-1 renal = test system: CAKI-1 renal
M14 melanoma = test system: M14 melanoma
SK-MEL-2 melanoma = test system: SK-MEL-2 melanoma
UACC-62 melanoma = test system: UACC-62 melanoma
SF-295 CNS = test system: SF-295 CNS
KM12 colon = test system: KM12 colon
MALME-3M melanoma = test system: MALME-3M melanoma
MCF7 breast = test system: MCF7 breast
IGROV1 ovarian = test system: IGROV1 ovarian
TK-10 renal = test system: TK-10 renal
OVCAR-4 ovarian = test system: OVCAR-4 ovarian
RPMI-8226 leukemia = test system: RPMI-8226 leukemia
U251 CNS = test system: U251 CNS
OVCAR-8 ovarian = test system: OVCAR-8 ovarian
HL-60(TB) leukemia = test system: HL-60(TB) leukemia
SK-MEL-28 melanoma = test system: SK-MEL-28 melanoma
MDA-MB-435 = test system: MDA-MB-435
HOP-62 NSCLC = test system: HOP-62 NSCLC
HCT-15 colon = test system: HCT-15 colon
NCI-H460 lung = test system: NCI-H460 lung
UACC-257 melanoma = test system: UACC-257 melanoma
HCT-116 colon = test system: HCT-116 colon
HOP-92 NSCLC = test system: HOP-92 NSCLC
HT29 colon = test system: HT29 colon
SNB-75 CNS = test system: SNB-75 CNS
ACHN renal = test system: ACHN renal
OVCAR-5 ovarian = test system: OVCAR-5 ovarian
HS 578T breast = test system: HS 578T breast
SF-539 CNS = test system: SF-539 CNS
NCI-H226 lung = test system: NCI-H226 lung
SN12C renal = test system: SN12C renal
T-47D breast = test system: T-47D breast
SK-OV-3 ovarian = test system: SK-OV-3 ovarian
SF-268 CNS = test system: SF-268 CNS
LOX IMVI melanoma = test system: LOX IMVI melanoma
SW-620 colon = test system: SW-620 colon
BT-549 breast = test system: BT-549 breast
UO-31 renal = test system: UO-31 renal
COLO 205 colon = test system: COLO 205 colon
MOLT-4 leukemia = test system: MOLT-4 leukemia
A549 NSCLC = test system: A549 NSCLC
HCC-2998 colon = test system: HCC-2998 colon
DU-145 prostate = test system: DU-145 prostate
PC-3 prostate = test system: PC-3 prostate

Nc1c(C(=O)c2cccc(C(O)(CO)CO)c2)cnn1-c1ccc(F)cc1
> 25 µM: TGI (CCRF-CEM leukemia) | TGI (NCI-H522 lung) | TGI (NCI-H23 lung) | TGI (RXF 393 renal) | TGI (786-0 renal) | TGI (SR leukemia) | TGI (SNB-19 CNS) | TGI (MDA-MB-231 breast) | TGI (A498 renal) | TGI (NCI/ADR-RES ovarian) | TGI (SK-MEL-5 melanoma) | TGI (OVCAR-3 ovarian) | TGI (K-562 leukemia) | TGI (CAKI-1 renal) | TGI (M14 melanoma) | TGI (SK-MEL-2 melanoma) | TGI (UACC-62 melanoma) | TGI (SF-295 CNS) | TGI (KM12 colon) | TGI (MALME-3M melanoma) | TGI (MCF7 breast) | TGI (IGROV1 ovarian) | TGI (TK-10 renal) | TGI (OVCAR-4 ovarian) | TGI (RPMI-8226 leukemia) | TGI (U251 CNS) | TGI (OVCAR-8 ovarian) | TGI (HL-60(TB) leukemia) | TGI (SK-MEL-28 melanoma) | TGI (MDA-MB-435) | TGI (HOP-62 NSCLC) | TGI (HCT-15 colon) | TGI (NCI-H460 lung) | TGI (UACC-257 melanoma) | TGI (HCT-116 colon) | TGI (HOP-92 NSCLC) | TGI (HT29 colon) | TGI (SNB-75 CNS) | TGI (ACHN renal) | TGI (OVCAR-5 ovarian) | TGI (HS 578T breast) | TGI (SF-539 CNS) | TGI (NCI-H226 lung) | TGI (SN12C renal) | TGI (T-47D breast) | TGI (SK-OV-3 ovarian) | TGI (SF-268 CNS) | TGI (LOX IMVI melanoma) | TGI (SW-620 colon) | TGI (BT-549 breast) | TGI (UO-31 renal) | TGI (COLO 205 colon) | TGI (MOLT-4 leukemia) | TGI (A549 NSCLC) | TGI (HCC-2998 colon) | TGI (DU-145 prostate) | TGI (PC-3 prostate)
inactive: GI50 (CCRF-CEM leukemia) > 25 µM | GI50 (NCI-H522 lung) > 25 µM | GI50 (NCI-H23 lung) > 25 µM | GI50 (RXF 393 renal) > 25 µM | GI50 (786-0 renal) > 25 µM | GI50 (SR leukemia) > 25 µM | GI50 (SNB-19 CNS) > 25 µM | GI50 (MDA-MB-231 breast) > 25 µM | GI50 (A498 renal) > 25 µM | GI50 (NCI/ADR-RES ovarian) > 25 µM | GI50 (SK-MEL-5 melanoma) > 25 µM | GI50 (OVCAR-3 ovarian) > 25 µM | GI50 (K-562 leukemia) > 25 µM | GI50 (CAKI-1 renal) > 25 µM | GI50 (M14 melanoma) > 25 µM | GI50 (SK-MEL-2 melanoma) > 25 µM | GI50 (UACC-62 melanoma) > 25 µM | GI50 (SF-295 CNS) > 25 µM | GI50 (KM12 colon) > 25 µM | GI50 (MALME-3M melanoma) > 25 µM | GI50 (MCF7 breast) > 25 µM | GI50 (IGROV1 ovarian) > 25 µM | GI50 (TK-10 renal) > 25 µM | GI50 (OVCAR-4 ovarian) > 25 µM | GI50 (RPMI-8226 leukemia) > 25 µM | GI50 (U251 CNS) > 25 µM | GI50 (OVCAR-8 ovarian) > 25 µM | GI50 (HL-60(TB) leukemia) > 25 µM | GI50 (SK-MEL-28 melanoma) > 25 µM | GI50 (MDA-MB-435) > 25 µM | GI50 (HOP-62 NSCLC) > 25 µM | GI50 (HCT-15 colon) > 25 µM | GI50 (NCI-H460 lung) > 25 µM | GI50 (UACC-257 melanoma) > 25 µM | GI50 (HCT-116 colon) > 25 µM | GI50 (HOP-92 NSCLC) > 25 µM | GI50 (HT29 colon) > 25 µM | GI50 (SNB-75 CNS) > 25 µM | GI50 (ACHN renal) > 25 µM | GI50 (OVCAR-5 ovarian) > 25 µM | GI50 (HS 578T breast) > 25 µM | GI50 (SF-539 CNS) > 25 µM | GI50 (NCI-H226 lung) > 25 µM | GI50 (SN12C renal) > 25 µM | GI50 (T-47D breast) > 25 µM | GI50 (SK-OV-3 ovarian) > 25 µM | GI50 (SF-268 CNS) > 25 µM | GI50 (LOX IMVI melanoma) > 25 µM | GI50 (SW-620 colon) > 25 µM | GI50 (BT-549 breast) > 25 µM | GI50 (UO-31 renal) > 25 µM | GI50 (COLO 205 colon) > 25 µM | GI50 (MOLT-4 leukemia) > 25 µM | GI50 (A549 NSCLC) > 25 µM | GI50 (HCC-2998 colon) > 25 µM | GI50 (DU-145 prostate) > 25 µM | GI50 (PC-3 prostate) > 25 µM
